Data from US20180147161A1, “MULTIDRUG BRITTLE MATRIX COMPOSITIONS” (BOARD OF REGENTS, THE UNIVERSITY OF TEXAS SYSTEM, priority 2015, published 2018).
Where two headings read alike, the source gives them in different places.

Columns and labels:
[1] = Particle size distribution by laser diffraction; format: physicochemical; conditions: [(D(90)−D(10)]/D(50))
[2] = Particle size distribution by laser diffraction; format: physicochemical; conditions: for Particle size D10 / Particle size D50 / Particle size D90: laser diffraction
Experimental: Measurement of particle size distributions of budesonide, tiotropium bromide and formoterol fumarate before and after jet milling were measured by laser diffraction (HELOS, Sympatec GmbH, Clausthal-Zellerfelg, Germany). A small amount of formoterol fumarate and Tiotropium bromide were separately dispersed in 10 mL 0.01% tween 80 mineral oil and a small amount of budesonide was dispersed in 10 mL 0.01% tween 80 in deionized water. The samples were sonicated for 5 minutes and diluted with enough solvent to produce light obscuration in the range of 15-20%. The sizes reported are average values of at least 3 measurements. The results are presented as D(x) and span, where X is the cumulative percentile of particles under the referred size (e.g. D(50) corresponds to the median diameter of the particles). Span is a measurement of particle size distribution calculated as [(D(90)−D(10)]/D(50).

[3] = BET specific surface area of triple therapy materials; format: physicochemical; conditions: for SSA: after jet milling
Experimental: Powder porosity was determined through the measurement of the specific surface area (SSA) using a Monosorb MS-22 rapid surface area analyzer (Quantachrome Instruments, Boynton Beach, Fla.). The instrument uses a modified BET equation for SSA determination. Samples were degassed in a Thermoflow™ Degasser for at least 2 hours at 25° C. using 30% nitrogen in helium as the […].

[4] = cited from earlier work

| SMILES | Span [1] | Span ([2]; [(D(90)−D(10)]/D(50))) | Particle size D10 [2] [μm] | Particle size D50 [2] [μm] | Particle size D90 [2] [μm] | SSA ± SD [3] [m^2/g] | other results |
| --- | --- | --- | --- | --- | --- | --- | --- |
| COc1ccc(C[C@@H](C)NC[C@H](O)c2ccc(O)c(NC=O)c2)cc1.COc1ccc(C[C@@H](C)NC[C@H](O)c2ccc(O)c(NC=O)c2)cc1.O=C(O)/C=C/C(=O)O [Formoterol furmarate, formoterol fumarate] | 7.75 | 7.75 | 1.16 ± 0.05 | 6.27 ± 0.97 | 49.78 ± 7.84 | 2.97 ± 0.05 | D50 ([2]; after jet milling): 4.51±0.02 μm; Span ([2]; after jet milling): 1.96; Particle size D50 ([2]; listed as Formoterol): 6.27±0.97 μm; SSA [3]: 5.08±0.26 m^2/g; SSA ± SD ([3]; listed as formoterol): 2.97±0.05 m^2/g |
| C[N+]1(C)[C@@H]2C[C@@H](OC(=O)C(O)(c3cccs3)c3cccs3)C[C@H]1[C@@H]1O[C@@H]12 [Jet milled tiotropium bromide, tiotropium bromide] |  | 2.0 | 1.09 ± 0.79 | 4.65 ± 0.04 | 10.39 ± 0.04 | 2.86 ± 0.11 |  |
| OC[C@@H](O)[C@@H](O)[C@H](O)[C@H](O)CO [Mannitol, D-(+)-Mannitol] | 1.80 | 1.8 | 6.88 ± 0.07 | 52.70 ± 0.59 | 101.91 ± 0.41 | 0.22 ± 0.001 | Particle size D50 ([2]; listed as mannitol): 52.70±0.59 μm |
| COc1ccc(C[C@@H](C)NC[C@H](O)c2ccc(O)c(NC=O)c2)cc1.COc1ccc(C[C@@H](C)NC[C@H](O)c2ccc(O)c(NC=O)c2)cc1.O=C(O)/C=C/C(=O)O [jet milled formoterol fumarate, formoterol fumarate] |  | 1.96 | 1.45 ± 1.01 | 4.51 ± 0.02 | 10.29 ± 0.07 | 5.08 ± 0.26 |  |
| C[C@@H]1C[C@H]2[C@@H]3CCC4=CC(=O)C=C[C@]4(C)[C@@]3(Cl)[C@@H](O)C[C@]2(C)[C@@]1(OC(=O)c1ccco1)C(=O)CCl [mometasone furoate] |  |  |  |  |  |  | Solubility in water [4]: practically insoluble |
| O.OC[C@H]1O[C@@H](O[C@H]2[C@H](O)[C@@H](O)C(O)O[C@@H]2CO)[C@H](O)[C@@H](O)[C@H]1O (some centres unmarked) [Lactose monohydrate, lactose monohydrate] |  | 2.43 | 4.13 ± 0.11 |  | 100.9 ± 0.27 | 0.34 ± 0.03 | Particle size D50 ([2]; listed as lactose, monohydrate): 39.78±1.32 μm; Particle size D50 ([2]; monohydrate): 39.78 ± 1.32 μm |
| OCc1cc(C(O)CNCCCCCCOCCCCc2ccccc2)ccc1O (centres unmarked) [salmeterol xinafoate] |  |  |  |  |  |  | Solubility in water [4]: sparingly soluble |
| C[N+]1(C)[C@@H]2C[C@@H](OC(=O)C(O)(c3cccs3)c3cccs3)C[C@H]1[C@@H]1O[C@@H]12 [Tiotropium bromide, tiotropium bromide] | 2.14 | 2.14 | 1.10 ± 0.01 | 5.14 ± 0.03 | 12.11 ± 0.07 | 2.08 ± 0.13 | D50 ([2]; after jet milling): 4.65±0.04 μm; Span ([2]; after jet milling): 2.0; Particle size D50 ([2]; listed as tiotropium): 5.14±0.03 μm; SSA [3]: 2.86±0.11 m^2/g; SSA ± SD ([3]; listed as tiotropium): 2.08±0.13 m^2/g |
